Reference: patent publication US9079902B2, “Heteroaryl sodium channel inhibitors” (AMGEN INC., priority 2011, dated 2015)

Experiments:
Nav 1.7 = Nav 1.7 (Homo sapiens (Human), UniProt Q15858); assay: Nav 1.7 in vitro assay (IonWorks Quattro population patch-clamp); type: cell-based; details: 293 cells stably transfected with Nav 1.7; for IC50: 26th pulse to -20 mV, 5 Hz; for inhibition at 4.9 µM: HEK293
Experimental: (§1) Nav 1.7 and Nav 1.5 In Vitro Assay
(§2) 293 cells stably transfected with either Nav 1.7 or with Nav 1.5 were recorded in population patch-clamp mode with the IonWorks® Quattro automated electrophysiology system in accordance with the manufacturer's specifications (Molecular Devices, LLC, Sunnyvale, Calif.). Sodium channel currents were measured in response to a train of depolarizations that induced successively greater inactivation.
(§3) Cells were held at −110 mV for three seconds (Nav 1.7) or half a second (Nav 1.5) from a holding voltage of −15 mV, then put through a series of 26 pulses of 150 msec duration to −20 mV at a frequency of 5 Hz. Cells were then left unclamped for a period of 3 to 8 minutes while a single concentration of test compound was added. Cells were then reclamped and put through the same voltage protocol. Current at the end of the 26th pulse to −20 mV was subtracted from the peak current evoked by the 26th pulse to −20 mV to correct for leak current. Percent block was calculated for each concentration in duplicate, and IC50 curves were fitted to percent block as a function of concentration.

Nav 1.5 = Nav 1.5 (Homo sapiens (Human), UniProt Q14524); assay: Nav 1.5 in vitro assay (IonWorks Quattro population patch-clamp); type: cell-based; details: 293 cells stably transfected with Nav 1.5; 26th pulse to -20 mV, 5 Hz
Sequence of Nav 1.5 (Q14524 whole entry): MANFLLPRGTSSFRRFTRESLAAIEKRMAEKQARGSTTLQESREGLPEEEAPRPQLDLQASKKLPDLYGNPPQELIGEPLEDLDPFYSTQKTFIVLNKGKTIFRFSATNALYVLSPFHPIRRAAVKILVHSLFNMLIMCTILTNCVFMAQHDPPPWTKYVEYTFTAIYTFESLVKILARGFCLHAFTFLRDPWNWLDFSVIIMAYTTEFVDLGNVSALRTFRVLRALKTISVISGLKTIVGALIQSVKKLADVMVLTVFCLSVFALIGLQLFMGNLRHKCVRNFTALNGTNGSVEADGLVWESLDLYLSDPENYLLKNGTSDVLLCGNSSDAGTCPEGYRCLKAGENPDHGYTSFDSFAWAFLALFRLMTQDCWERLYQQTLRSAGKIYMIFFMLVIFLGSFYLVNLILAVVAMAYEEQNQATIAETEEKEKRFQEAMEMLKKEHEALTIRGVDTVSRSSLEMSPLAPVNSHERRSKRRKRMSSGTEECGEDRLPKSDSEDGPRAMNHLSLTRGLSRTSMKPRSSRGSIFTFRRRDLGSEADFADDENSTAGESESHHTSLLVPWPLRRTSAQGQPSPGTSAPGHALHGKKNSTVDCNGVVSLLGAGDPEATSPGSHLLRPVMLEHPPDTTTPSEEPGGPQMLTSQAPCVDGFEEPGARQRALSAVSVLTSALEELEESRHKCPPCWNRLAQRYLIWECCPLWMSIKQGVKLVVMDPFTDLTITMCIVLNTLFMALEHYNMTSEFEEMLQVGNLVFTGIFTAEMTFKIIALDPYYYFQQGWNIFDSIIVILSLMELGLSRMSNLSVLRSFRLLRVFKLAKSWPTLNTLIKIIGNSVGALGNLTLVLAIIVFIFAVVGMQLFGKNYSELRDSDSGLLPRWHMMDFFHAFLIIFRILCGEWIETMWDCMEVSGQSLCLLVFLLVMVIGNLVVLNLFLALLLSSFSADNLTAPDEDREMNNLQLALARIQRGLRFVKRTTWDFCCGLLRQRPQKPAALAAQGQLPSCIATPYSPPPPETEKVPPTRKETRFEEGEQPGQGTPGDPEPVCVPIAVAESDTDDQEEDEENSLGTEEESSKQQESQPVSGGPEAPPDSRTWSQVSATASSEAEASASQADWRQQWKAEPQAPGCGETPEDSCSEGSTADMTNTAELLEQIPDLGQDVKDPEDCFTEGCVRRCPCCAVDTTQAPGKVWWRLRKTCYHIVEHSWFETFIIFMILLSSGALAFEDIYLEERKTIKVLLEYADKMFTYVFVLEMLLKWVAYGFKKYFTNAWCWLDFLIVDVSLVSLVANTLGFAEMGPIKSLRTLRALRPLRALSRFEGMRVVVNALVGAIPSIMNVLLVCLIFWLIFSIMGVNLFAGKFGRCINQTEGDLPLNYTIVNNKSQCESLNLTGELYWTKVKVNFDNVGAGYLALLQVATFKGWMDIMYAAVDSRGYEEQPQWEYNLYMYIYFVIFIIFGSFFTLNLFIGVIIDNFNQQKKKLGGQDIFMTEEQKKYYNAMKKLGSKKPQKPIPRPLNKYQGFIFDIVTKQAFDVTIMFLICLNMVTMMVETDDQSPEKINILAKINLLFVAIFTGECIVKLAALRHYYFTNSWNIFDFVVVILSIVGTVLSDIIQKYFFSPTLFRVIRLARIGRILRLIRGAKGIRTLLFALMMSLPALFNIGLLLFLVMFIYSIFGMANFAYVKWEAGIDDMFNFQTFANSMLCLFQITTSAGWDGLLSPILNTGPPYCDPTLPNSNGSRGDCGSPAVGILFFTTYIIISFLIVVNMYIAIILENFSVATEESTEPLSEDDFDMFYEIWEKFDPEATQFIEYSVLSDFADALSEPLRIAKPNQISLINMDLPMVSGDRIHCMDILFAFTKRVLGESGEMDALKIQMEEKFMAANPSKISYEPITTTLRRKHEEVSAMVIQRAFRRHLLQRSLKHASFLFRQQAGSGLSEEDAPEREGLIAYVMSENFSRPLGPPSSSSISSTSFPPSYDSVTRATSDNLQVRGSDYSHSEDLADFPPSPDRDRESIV
Experimental: as §1, §2, §3

Sequence of Nav 1.7 (Q15858 whole entry): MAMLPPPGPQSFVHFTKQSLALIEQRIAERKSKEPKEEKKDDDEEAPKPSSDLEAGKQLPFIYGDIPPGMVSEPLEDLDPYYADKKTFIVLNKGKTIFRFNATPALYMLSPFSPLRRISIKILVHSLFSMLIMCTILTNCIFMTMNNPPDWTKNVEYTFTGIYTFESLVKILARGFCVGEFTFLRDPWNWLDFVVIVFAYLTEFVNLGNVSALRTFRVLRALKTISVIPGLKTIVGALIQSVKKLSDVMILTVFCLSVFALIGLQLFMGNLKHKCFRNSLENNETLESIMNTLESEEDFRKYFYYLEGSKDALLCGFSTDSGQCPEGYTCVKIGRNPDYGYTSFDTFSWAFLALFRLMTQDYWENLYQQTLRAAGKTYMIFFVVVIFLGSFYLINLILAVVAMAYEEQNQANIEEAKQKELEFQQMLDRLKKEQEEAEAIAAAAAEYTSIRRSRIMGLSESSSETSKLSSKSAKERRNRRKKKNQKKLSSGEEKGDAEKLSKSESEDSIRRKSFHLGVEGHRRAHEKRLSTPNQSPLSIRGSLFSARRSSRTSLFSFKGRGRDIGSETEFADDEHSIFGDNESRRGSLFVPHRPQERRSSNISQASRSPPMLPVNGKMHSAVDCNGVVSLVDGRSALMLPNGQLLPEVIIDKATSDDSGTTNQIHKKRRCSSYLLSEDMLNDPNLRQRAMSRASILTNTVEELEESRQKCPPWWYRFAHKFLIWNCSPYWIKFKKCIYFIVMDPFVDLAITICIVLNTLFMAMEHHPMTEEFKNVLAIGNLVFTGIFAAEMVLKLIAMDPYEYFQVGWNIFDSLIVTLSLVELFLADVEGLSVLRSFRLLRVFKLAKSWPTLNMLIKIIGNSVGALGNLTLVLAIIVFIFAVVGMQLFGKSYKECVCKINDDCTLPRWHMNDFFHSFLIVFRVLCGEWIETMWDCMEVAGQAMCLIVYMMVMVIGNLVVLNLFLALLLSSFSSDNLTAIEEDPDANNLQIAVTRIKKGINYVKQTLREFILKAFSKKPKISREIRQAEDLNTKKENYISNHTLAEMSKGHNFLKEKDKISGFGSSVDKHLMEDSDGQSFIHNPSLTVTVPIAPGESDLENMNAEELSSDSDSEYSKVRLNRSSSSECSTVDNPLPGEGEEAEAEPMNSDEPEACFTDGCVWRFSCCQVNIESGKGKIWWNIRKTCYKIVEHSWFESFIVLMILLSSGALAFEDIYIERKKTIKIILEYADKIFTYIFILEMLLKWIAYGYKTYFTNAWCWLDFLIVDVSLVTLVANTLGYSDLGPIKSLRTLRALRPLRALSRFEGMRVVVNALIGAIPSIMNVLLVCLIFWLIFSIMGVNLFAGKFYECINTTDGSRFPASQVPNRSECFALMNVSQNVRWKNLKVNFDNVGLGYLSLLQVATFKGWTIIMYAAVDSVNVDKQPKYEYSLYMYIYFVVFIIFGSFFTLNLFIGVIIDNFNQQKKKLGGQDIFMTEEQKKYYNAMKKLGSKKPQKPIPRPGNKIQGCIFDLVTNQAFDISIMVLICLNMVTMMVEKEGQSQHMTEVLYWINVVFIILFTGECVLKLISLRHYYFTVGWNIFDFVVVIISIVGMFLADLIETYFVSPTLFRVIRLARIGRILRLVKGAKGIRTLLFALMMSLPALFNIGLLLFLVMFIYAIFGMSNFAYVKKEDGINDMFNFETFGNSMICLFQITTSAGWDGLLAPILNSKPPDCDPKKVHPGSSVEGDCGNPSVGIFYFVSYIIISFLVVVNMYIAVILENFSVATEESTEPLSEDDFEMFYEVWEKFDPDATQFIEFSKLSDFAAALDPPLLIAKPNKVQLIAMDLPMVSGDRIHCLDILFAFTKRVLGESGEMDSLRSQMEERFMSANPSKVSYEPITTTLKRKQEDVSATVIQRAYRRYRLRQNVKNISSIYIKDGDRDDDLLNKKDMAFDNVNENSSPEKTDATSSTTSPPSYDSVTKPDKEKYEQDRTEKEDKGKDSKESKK

| IC50 (Nav 1.7) [µM] | inhibition at 4.9 µM (Nav 1.7) [%] | SMILES | IC50 (Nav 1.5) [µM] |
| --- | --- | --- | --- |
| 1.02 | – | Cn1nccc1-c1cc(C(F)(F)F)ccc1-c1cn(C)c2nc(S(=O)(=O)Nc3ncns3)ccc12 [Example 26, 1-Methyl-3-(2-(1-Methyl-1H-Pyrazol-5-yl)-4-(Trifluoromethyl)Phenyl)-N-(1,2,4-Thiadiazol-5-yl)-1H-Pyrrolo [2,3-B]Pyridine-6-Sulfonamide] | > 10 |
| 0.724 | – | Cn1nccc1-c1cc(C(F)(F)F)ccc1-c1c[nH]c2cc(S(=O)(=O)Nc3ncns3)ccc12 [Example 5, 3-(2-(1-Methyl-1H-Pyrazol-5-yl)-4-(Trifluoromethyl)Phenyl)-N-(1,2,4-Thiadiazol-5-yl)-1H-Indole-6-Sulfonamide] | > 10 |
| – | – | COc1ccc(-c2cn(C)c3cc(S(=O)(=O)Nc4ncns4)ccc23)c(OC)c1 [Example 36, 3-(2,4-Dimethoxyphenyl)-1-Methyl-N-(1,2,4-Thiadiazol-5-yl)-1H-Indole-6-Sulfonamide] | > 10 |
| 3.29 | – | CC#Cc1cncc(-c2cn(C)c3cc(S(=O)(=O)Nc4ncns4)ccc23)c1 [Example 14, 1-Methyl-3-(5-(Prop-1-Yn-1-yl)Pyridin-3-yl)-N-(1,2,4-Thiadiazol-5-yl)-1H-Indole-6-Sulfonamide] | > 10 |
| – | – | CN(C)c1cccc(-c2cn(C)c3cc(S(=O)(=O)Nc4ncns4)ccc23)c1 [Example 47, 3-(3-(Dimethylamino)Phenyl)-1-Methyl-N-(1,2,4-Thiadiazol-5-yl)-1H-Indole-6-Sulfonamide] | > 10 |
| 0.0425 | – | Cn1cc(-c2ccc(C(F)(F)F)cc2C2=CCNCC2)c2ccc(S(=O)(=O)Nc3ncns3)cc21 [Example 22, 1-Methyl-3-(2-(1,2,3,6-Tetrahydropyridin-4-yl)-4-(Trifluoromethyl)Phenyl)-N-(1,2,4-Thiadiazol-5-yl)-1H-Indole-6-Sulfonamide] | > 10 |
| 3.19 | – | Cn1nccc1-c1cc(C(F)(F)F)ccc1-c1cn(C)c2cc(S(=O)(=O)Nc3nccs3)ccc12 [Example 11, 1-Methyl-3-(2-(1-Methyl-1H-Pyrazol-5-yl)-4-(Trifluoromethyl)Phenyl)-N-(Thiazol-2-yl)-1H-Indole-6-Sulfonamide] | > 10 |
| – | – | Cn1cc(-c2cccc(S(C)(=O)=O)c2)c2ccc(S(=O)(=O)Nc3ncns3)cc21 [Example 39, 1-Methyl-3-(3-(Methylsulfonyl)Phenyl)-N-(1,2,4-Thiadiazol-5-yl)-1H-Indole-6-Sulfonamide] | > 10 |
| – | – | COc1ccc(-c2cn(C)c3cc(S(=O)(=O)Nc4ncns4)ccc23)c2ccccc12 [Example 40, 3-(4-Methoxynaphthalen-1-yl)-1-Methyl-N-(1,2,4-Thiadiazol-5-yl)-1H-Indole-6-Sulfonamide] | > 10 |
| 1.86 | – | Cn1nccc1-c1cc(C(F)(F)F)ccc1-c1cn(C)c2cc(S(=O)(=O)Nc3nncs3)ccc12 [Example 13, 1-Methyl-3-(2-(1-Methyl-1H-Pyrazol-5-yl)-4-(Trifluoromethyl)Phenyl)-N-(1,3,4-Thiadiazol-2-yl)-1H-Indole-6-Sulfonamide] | > 10 |
| – | 37.2 | COc1ccc(-c2cn(C)c3cc(S(=O)(=O)Nc4ncns4)ccc23)cn1 [Example 61, 3-(6-Methoxypyridin-3-Yl)-1-Methyl-N-(1,2,4-Thiadiazol-5-Yl)-1H-Indole-6-Sulfonamide] | > 10 |
| – | 36.2 | Cn1cc(-c2cc3ccccc3o2)c2ccc(S(=O)(=O)Nc3ncns3)cc21 [Example 59, 3-(Benzofuran-2-Yl)-1-Methyl-N-(1,2,4-Thiadiazol-5-Yl)-1H-Indole-6-Sulfonamide] | > 10 |
| 0.835 | – | Cn1nccc1-c1cc(C(F)(F)F)ccc1-c1cn(C)c2cc(S(=O)(=O)Nc3ccncn3)ccc12 [Example 12, 1-Methyl-3-(2-(1-Methyl-1H-Pyrazol-5-yl)-4-(Trifluoromethyl)Phenyl)-N-(Pyrimidin-4-yl)-1H-Indole-6-Sulfonamide] | > 10 |
| 1.41 | – | Cn1cc(-c2ccc(C(F)(F)F)cc2C2=CCNCC2)c2ccc(S(=O)(=O)Nc3cscn3)cc21 [Example 66, 1-Methyl-3-(2-(1,2,3,6-Tetrahydropyridin-4-Yl)-4-(Trifluoromethyl)Phenyl)-N-(Thiazol-4-Yl)-1H-Indole-6-Sulfonamide] | > 10 |
| – | – | COc1cc(OC)cc(-c2cn(C)c3cc(S(=O)(=O)Nc4ncns4)ccc23)c1 [Example 29, 3-(3,5-Dimethoxyphenyl)-1-Methyl-N-(1,2,4-Thiadiazol-5-yl)-1H-Indole-6-Sulfonamide] | > 10 |
| – | – | Cn1cc(-c2cccc(OC(F)(F)F)c2)c2ccc(S(=O)(=O)Nc3ncns3)cc21 [Example 33, 1-Methyl-N-(1,2,4-Thiadiazol-5-yl)-3-(3-(Trifluoromethoxy)Phenyl)-1H-Indole-6-Sulfonamide] | > 10 |
| – | – | Cn1cc(-c2cccc3ncccc23)c2ccc(S(=O)(=O)Nc3ncns3)cc21 [Example 38, 1-Methyl-3-(Quinolin-5-yl)-N-(1,2,4-Thiadiazol-5-yl)-1H-Indole-6-Sulfonamide] | > 10 |

| IC50 (Nav 1.7) [µM] | inhibition at 4.9 µM (Nav 1.7) [%] | SMILES | IC50 (Nav 1.5) [µM] |
| --- | --- | --- | --- |
| – | – | Cn1cc(-c2ccc(F)c(C#N)c2)c2ccc(S(=O)(=O)Nc3ncns3)cc21 [Example 30, 3-(3-Cyano-4-Fluorophenyl)-1-Methyl-N-(1,2,4-Thiadiazol-5-yl)-1H-Indole-6-Sulfonamide] | 7.63 |
| – | – | COc1cc(F)ccc1-c1cn(C)c2cc(S(=O)(=O)Nc3ncns3)ccc12 [Example 28, 3-(4-FLUORO-2-METHOXYPHENYL)-1-METHYL-N-(1,2,4-Thiadiazol-5-yl)-1H-Indole-6-Sulfonamide] | > 10 |
| – | – | COc1ccc(-c2cn(C)c3cc(S(=O)(=O)Nc4ncns4)ccc23)cc1C(F)(F)F [Example 49, 3-(4-Methoxy-3-(Trifluoromethyl)Phenyl)-1-Methyl-N-(1,2,4-Thiadiazol-5-Yl)-1H-Indole-6-Sulfonamide] | > 10 |
| – | – | COc1ccc(-c2cn(C)c3cc(S(=O)(=O)Nc4ncns4)ccc23)c(Cl)c1 [Example 41, 3-(2-Chloro-4-Methoxyphenyl)-1-Methyl-N-(1,2,4-Thiadiazol-5-yl)-1H-Indole-6-Sulfonamide] | > 10 |
| – | – | Cc1noc(C)c1-c1cn(C)c2cc(S(=O)(=O)Nc3ncns3)ccc12 [Example 42, 3-(3,5-Dimethylisoxazol-4-yl)-1-Methyl-N-(1,2,4-Thiadiazol-5-yl)-1H-Indole-6-Sulfonamide] | > 10 |
| – | – | Cn1cc(-c2cccc(C#N)c2)c2ccc(S(=O)(=O)Nc3ncns3)cc21 [Example 34, 3-(3-Cyanophenyl)-1-Methyl-N-(1,2,4-Thiadiazol-5-yl)-1H-Indole-6-Sulfonamide] | > 10 |
| – | – | Cn1cc(-c2cccc3ccccc23)c2ccc(S(=O)(=O)Nc3ncns3)cc21 [Example 37, 1-Methyl-3-(Naphthalen-1-yl)-N-(1,2,4-Thiadiazol-5-yl)-1H-Indole-6-Sulfonamide] | > 10 |
| – | – | Cn1cc(-c2ccc(OC(F)(F)F)cc2)c2ccc(S(=O)(=O)Nc3ncns3)cc21 [Example 32, 1-Methyl-N-(1,2,4-Thiadiazol-5-yl)-3-(4-(Trifluoromethoxy)Phenyl)-1H-Indole-6-Sulfonamide] | > 10 |
| – | – | Cn1cc(-c2ccccc2)c2ccc(S(=O)(=O)Nc3ncns3)cc21 [Example 35, 1-Methyl-3-Phenyl-N-(1,2,4-Thiadiazol-5-yl)-1H-Indole-6-Sulfonamide] | > 10 |
| – | – | Cn1cc(-c2ccc(Br)cc2C(F)(F)F)c2ccc(S(=O)(=O)Nc3ncns3)cc21 [Example 43, 3-(4-Bromo-2-(Trifluoromethyl)Phenyl)-1-Methyl-N-(1,2,4-Thiadiazol-5-yl)-1H-Indole-6-Sulfonamide] | > 10 |
| – | – | Cn1nccc1-c1cn(C)c2cc(S(=O)(=O)Nc3ncns3)ccc12 [Example 52, 1-Methyl-3-(1-Methyl-1H-Pyrazol-5-Yl)-N-(1,2,4-Thiadiazol-5-Yl)-1H-Indole-6-Sulfonamide] | > 10 |
| – | – | Cn1cc(-c2ccc(C#N)c(F)c2)c2ccc(S(=O)(=O)Nc3ncns3)cc21 [Example 31, 3-(4-Cyano-3-Fluorophenyl)-1-Methyl-N-(1,2,4-Thiadiazol-5-yl)-1H-Indole-6-Sulfonamide] | > 10 |
| – | – | Cn1cc(-c2ccccc2C(F)(F)F)c2ccc(S(=O)(=O)Nc3ncns3)cc21 [Example 44, 1-Methyl-N-(1,2,4-Thiadiazol-5-yl)-3-(2-(Trifluoromethyl)Phenyl)-1H-Indole-6-Sulfonamide] | > 10 |
| – | – | Cc1cnc(N)c(-c2cn(C)c3cc(S(=O)(=O)Nc4ncns4)ccc23)c1 [Example 45, 3-(2-Amino-5-Methylpyridin-3-yl)-1-Methyl-N-(1,2,4-Thiadiazol-5-yl)-1H-Indole-6-Sulfonamide] | > 10 |
| – | – | Cn1cc(-c2ccc(C(F)(F)F)c(Cl)c2)c2ccc(S(=O)(=O)Nc3ncns3)cc21 [Example 24, 3-(3-Chloro-4-(Trifluoromethyl)Phenyl)-1-Methyl-N-(1,2,4-Thiadiazol-5-yl)-1H-Indole-6-Sulfonamide] | > 10 |
| – | – | Cc1cc(C#N)ccc1-c1cn(C)c2cc(S(=O)(=O)Nc3ncns3)ccc12 [Example 46, 3-(4-Cyano-2-Methylphenyl)-1-Methyl-N-(1,2,4-Thiadiazol-5-yl)-1H-Indole-6-Sulfonamide] | > 10 |
| – | – | Cn1cc(-c2cccc(C(F)(F)F)c2)c2ccc(S(=O)(=O)Nc3ncns3)cc21 [Example 48, 1-Methyl-N-(1,2,4-Thiadiazol-5-yl)-3-(3-(Trifluoromethyl)Phenyl)-1H-Indole-6-Sulfonamide] | > 10 |
